{
  "source": "patent US11857570B2",
  "about": "“Natural composition for use in gynecology” (Organicare LLC, priority 2017, dated 2024)",
  "key": {"[1]": {"test_system": "transformed human vaginal epithelial cells (Episkin)", "assay": "Cell survival test (MTT) with three-dimensional vaginal epithelium reconstructed in vitro", "type": "cell-based", "description": "The potential skin irritation on the vaginal epithelium was evaluated in vitro by means of a cytotoxicity assay: cell survival test with three-dimensional vaginal epithelium reconstructed in vitro (MTT test). The three-dimensional cell model used in the test consists of 0.5 cm^2 diameter units of cultures of transformed human vaginal epithelial cells, maintained for 5 days in a chemically defined culture medium and in contact with air on inert polycarbonate filters. The model was purchased from Episkin® (Lyons, lot 16-HVE-015).\nSodium lauryl sulphate (SLS) dissolved at 0.5% by weight in a phosphate buffer (Euroclone) was used as a positive control. The phosphate buffer was used on its own as a negative control. Exposure took place for 1 and 6 hours at about 37° C., 5% CO2. At the end of exposure, the epithelium was washed with phosphate buffer. The epithelium was incubated for 3 h at 37° C. with a 1 mg/ml solution of MTT (3-[4,5-dimethylthiazol-2-yl]-2,5-diphenyltetrazoliumbromide).\nThe solution was subsequently removed and replaced with isopropanol, with […]\nsuccessive hours of incubation at room temperature. 2 aliquots of each epithelium were transferred into a 96-well plate for the absorbance reading, which was carried out at a wavelength of 570 nm with a Tecan Sunrise remote colorimeter, equipped with a plate reader.\nThrough the creation of a dose-response curve, the cytotoxicity data obtained with the MTT test (Table 5) make it possible to determine the theoretical value of ET50, that is, the time in minutes that induces a 50% reduction in cell viability in the epithelium compared to untreatedcells."}, "bacterial vaginosis": {"test_system": "bacterial vaginosis", "conditions": "at 3 months; cited from earlier work"}},
  "data": [
    {"compound": "CCCCCCCCCCCCOS(=O)(=O)[O-].[Na+]", "note": "[Positive control, Sodium lauryl sulphate]", "values": [
      {"measurement": "% mean cell viability 1 h treatment", "setting": "[1]; MTT, 1 h exposure, reconstructed human vaginal epithelium", "result": 8.26, "unit": "%"},
      {"measurement": "% mean cell viability 6 h treatment", "setting": "[1]; MTT, 6 h exposure, reconstructed human vaginal epithelium", "result": 6.54, "unit": "%"},
      {"measurement": "ET50", "setting": "[1]; time that induces a 50% reduction in cell viability compared to untreated cells", "result": 32.70, "unit": "min"}
    ]},
    {"compound": "Cc1ncc([N+](=O)[O-])n1CCO", "note": "[metronidazole]", "values": [
      {"measurement": "risk of relapse", "setting": "bacterial vaginosis", "result": "33 % of women"}
    ]}
  ]
}
